{
  "source": "patent US12391643B2",
  "about": "“Substituted amino-thiol and amino-disulfide compounds, and uses thereof” (The Regents of the University of California, priority 2019, dated 2025)",
  "key": {"[1]": {"assay": "Pharmacokinetics of cystamine and D4-cystamine in rats (monomer measured in plasma)", "format": "in vivo, Sprague Dawley rats", "description": "Pharmacokinetics of Cystamine in Rats.\nIn the experimental study 5 Sprague Dawley rats were used: 2 rats were used for control (non-deuterated cystamine) and 3 rats were used for the study compound (D4 cystamine).\nBlood was sampled at 0, 20 min, 40 min, 1, 2, 4 and 6 hours (7 total samples per rat). Approximately 160 μl of whole blood was collected into an EDTA retro-orbital blood collection tube and briefly mixed to insure uniform mixing of EDTA. The blood was quickly transferred into a clean ependorf tube containing 40 μl of fresh 150 mM NEM, mixed and incubated at room temperature for 10 minutes. The Eppendorf tube was centrifuged at 3000 rmp for 5 minute sto pellet RBC and collect plasma into a fresh Eppendorf tube. The volume of the plasma was measured by pipette. Formic acid was added to the plasma to a concentration of 1% and mixed."}, "cystinotic fibroblasts [2]": {"test_system": "cystinotic fibroblasts", "assay": "Cystine re-accumulation after washout in cystinotic fibroblasts", "format": "cell-based, human", "conditions": "100 uM for 3 h, then drug-free media up to 17 h; vs cystamine", "description": "(§1) In vitro experiments with isotopically enriched cystamine in cystinotic fibroblasts. Fibroblasts from a de-identified cystinotic patient were split 3× from 2 plates into 36 plates. Three different drugs were used for the experiments: cystamine (non-labeled), d2-cystamine, and d4-cystamine. There were two time series for each drug. The first was with constant drug incubation and included: 0, 10 min, 30 min, 1 h, 3 h, and 5 h. The other series included a washout after 3 h drug incubation, using fresh media following a PBS wash, and included the timepoints: 0, 30 min, 1 h, 3 h, 5 h, and 17 h. A direct quench and extraction technique were used for harvesting all cells to minimize further oxidation and metabolism. This included 2× washes with PBS that included 5 mM N-ethylmaleimide for trapping free thiol groups, and then scraping the plates with an acidified organic solvent extraction solution containing both d4-cystine and d4-cysteamine (plus d-8 cystamine) as internal standards. All samples were run on an API 4500 triple quadrupole LC-MS/MS, with selective reaction monitoring (SRM/MRM) for the following compounds of interest: cystine, NEM-cysteamine, NEM-cysteine, cystamine, and 2-(methylthio)ethylamine. All data fit well to single exponential curves (either decay or association), except where mentioned.\nCystine measurement after washout: Fibroblast cultures were exposed to 100 uM cystamine/d2-cystamine/d4-cystamine for 3 h. Following incubation, cells were washed with PBS, and then incubated with regular media (containing FBS) for the following timepoints: 0 min, 30 min, 1 h, 3 h, 5 h, and 17 h. Cells were harvested identically as described previously.\nFibroblasts from a de-identified cystinotic patient were split 3× from 2 plates into 18 plates. Two different drugs were used for the experiments: D4n-cystamine, and D8-cystamine. There were two time series for each drug. The first was with constant drug incubation and included: 0, 15 min, 30 min, 1 hr, and 3 hr. The other series included a washout after 3 hours of drug incubation, using fresh media following a PBS wash, and included the time-points: 0, 1 hr, 3 hr, and 16 hr. A direct quench and extraction technique was used for harvesting all cells to minimize further oxidation and metabolism. […] All samples were run on an API 4500 triple quadruple LC-MS/MS, with selective reaction monitoring (SRM/MRM) for the following compounds of interest: cystine, NEM-cysteamine, NEM-cysteine, and cystamine. All data fit well to single exponential curves (either decay or association), except where mentioned.\nFibroblast cultures were exposed to 50 μM cystamine (D8 or D4n) for 3 hours. Following incubation, cells were washed with PBS and then incubated with regular mediate containing FBS for 1 h, 3 h, and 16 h. Cells were harvested as above. […] Cystine reaccumulation between D4n-cystamine and D8-cystamine are very similar, indicating similar levels of drug remaining during the washout timepoints (FIG. 15)."}, "cystinotic fibroblasts [3]": {"test_system": "cystinotic fibroblasts", "assay": "Intracellular NEM-cysteamine, NEM-cysteine, cystamine and mixed disulfide levels in cystinotic fibroblasts", "format": "cell-based, human", "conditions": "washout period", "description": "as §1\nNEM-cysteamine and NEM-cysteine during constant incubation. Fibroblast cultures were exposed to drug (either cystamine, d2-cystamine, or d4-cystamine) and harvested as described on page 2 for the cystine depletion curve. NEM-cysteamine (or NEM-d1-cysteamine or NEM-d2-cysteamine) was measured for each respective plate and normalized against the signal for d4-cystine.\nNEM-cysteamine during washout. Fibroblast cultures were exposed to drug (either cystamine, d2-cystamine, or d4-cystamine) for 3 h were then exposed to media for various timepoints and harvested as previously described.\nNEM-cysteine during washout. Fibroblast cultures were exposed to drug (either cystamine, d2-cystamine, or d4-cystamine) for 3 h were then exposed to media for various timepoints and harvested as previously described.\nCystamine during constant drug incubation. Fibroblast cultures were exposed to drug (either cystamine, d2-cystamine, or d4-cystamine) for various timepoints following harvesting as described earlier. Cystamine could be measured in the non-labeled cystamine incubation as well as the d4-cystamine incubation. d2-cystamine could not be accurately measured due to a strong background interference signal corresponding to that mass. No cystamine could be measured in the washout experiments."}},
  "data": [
    {"molecule": "[2H]C([2H])(CN)SSC([2H])([2H])CN", "note": "[D4-Cystamine, 2,2′-disulfanediylbis(ethan-2,2-d2-1-aminium) chloride]", "values": [
      {"measurement": "AUC relative to non-deuterated cystamine", "setting": "[1]", "result": "at least 1.6 ×"},
      {"measurement": "Cmax relative to non-deuterated cystamine", "setting": "[1]", "result": "~2", "unit": "×"},
      {"measurement": "AUC of derived monomer, comparison in words", "setting": "[1]; vs cystamine derived cysteamine", "result": "much higher"},
      {"measurement": "Cystine re-accumulation after washout, comparison in words", "setting": "cystinotic fibroblasts [2]", "result": "very similar"},
      {"measurement": "NEM-cysteine level after 3 h incubation and washout", "setting": "cystinotic fibroblasts [3]", "result": "rise and increase"}
    ]}
  ]
}
